Experimental data from PubChem BioAssay AID248 (DTP/NCI, 2004).
Where “and” joins values, the source holds several entries; their conditions need not be identical. Identical values can stand only once. Toxic doses and inconclusive results are not listed. Cut-off read from the data, not from the text of the source: active = T/C of 150% or more; inactive = T/C below 125%.

Tested on: L1210 leukemia ip in BDF1 mice, survival T/C
Experiment: NCI In Vivo Anticancer Drug Screen. Data for tumor model L1210 Leukemia (intraperitoneal) in B6D2F1 (BDF1) mice
Conditions: endpoint: mean survival time, higher = longer survival
Summary of the method: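 Ratio derived from survival: compound-dosed mice over vehicle-dosed mice, all bearing a transplantable tumor.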

[1] = dose: 50.0 mg/kg/injection, schedule: Q01DX001 (ip), vehicle: saline
[2] = dose: 100.0 mg/kg/injection, schedule: Q01DX001 (ip), vehicle: saline
[3] = dose: 200.0 mg/kg/injection, schedule: Q01DX001 (ip), vehicle: saline
[4] = dose: 400.0 mg/kg/injection, schedule: Q01DX001 (ip), vehicle: saline
[5] = dose: 100.0 mg/kg/injection, schedule: Q04DX002 (ip), vehicle: Klucel (hydroxypropylcellulose) (HPC)
[6] = dose: 200.0 mg/kg/injection, schedule: Q04DX002 (ip), vehicle: Klucel (hydroxypropylcellulose) (HPC)
[7] = dose: 400.0 mg/kg/injection, schedule: Q04DX002 (ip), vehicle: Klucel (hydroxypropylcellulose) (HPC)
[8] = dose: 100.0 mg/kg/injection, schedule: Q04DX003 (ip), vehicle: saline
[9] = dose: 200.0 mg/kg/injection, schedule: Q04DX003 (ip), vehicle: saline
[10] = dose: 400.0 mg/kg/injection, schedule: Q04DX003 (ip), vehicle: saline
[11] = dose: 100.0 mg/kg/injection, schedule: Q04DX003 (ip), vehicle: Klucel (hydroxypropylcellulose) (HPC)
[12] = dose: 25.0 mg/kg/injection, schedule: Q01DX009 (ip), vehicle: saline
[13] = dose: 50.0 mg/kg/injection, schedule: Q01DX009 (ip), vehicle: saline
[14] = dose: 100.0 mg/kg/injection, schedule: Q01DX009 (ip), vehicle: saline
[15] = dose: 100.0 mg/kg/injection, schedule: Q01DX009 (ip), vehicle: Klucel (hydroxypropylcellulose) (HPC)
[16] = dose: 200.0 mg/kg/injection, schedule: Q01DX009 (ip), vehicle: Klucel (hydroxypropylcellulose) (HPC)
[17] = dose: 12.5 mg/kg/injection, schedule: Q04DX003 (ip), vehicle: saline
[18] = dose: 25.0 mg/kg/injection, schedule: Q04DX003 (ip), vehicle: saline
[19] = dose: 50.0 mg/kg/injection, schedule: Q04DX003 (ip), vehicle: saline
[20] = dose: 200.0 mg/kg/injection, schedule: Q04DX003 (ip), vehicle: Klucel (hydroxypropylcellulose) (HPC)
[21] = dose: 400.0 mg/kg/injection, schedule: Q04DX003 (ip), vehicle: Klucel (hydroxypropylcellulose) (HPC)

Measured: T/C

CCOC(=O)C1CCc2c(ccc3ccccc23)N1 (stereo not drawn)
inactive: dose: 50.0 mg/kg/injection, schedule: Q01DX001 (ip), vehicle: carboxymethylcellulose (CMC) 100 % of control | dose: 50.0 mg/kg/injection, schedule: Q01DX009 (ip), vehicle: carboxymethylcellulose (CMC) 102 % of control and 91 % of control | dose: 50.0 mg/kg/injection, schedule: Q04DX002 (ip), vehicle: carboxymethylcellulose (CMC) 100 % of control and 106 % of control | dose: 50.0 mg/kg/injection, schedule: Q04DX003 (ip), vehicle: carboxymethylcellulose (CMC) 105 % of control | dose: 100.0 mg/kg/injection, schedule: Q01DX001 (ip), vehicle: carboxymethylcellulose (CMC) 105 % of control | dose: 100.0 mg/kg/injection, schedule: Q01DX009 (ip), vehicle: carboxymethylcellulose (CMC) 94 % of control and 112 % of control | dose: 100.0 mg/kg/injection, schedule: Q04DX002 (ip), vehicle: carboxymethylcellulose (CMC) 100 % of control and 106 % of control | dose: 100.0 mg/kg/injection, schedule: Q04DX003 (ip), vehicle: carboxymethylcellulose (CMC) 107 % of control | dose: 200.0 mg/kg/injection, schedule: Q01DX001 (ip), vehicle: carboxymethylcellulose (CMC) 103 % of control | dose: 200.0 mg/kg/injection, schedule: Q01DX009 (ip), vehicle: carboxymethylcellulose (CMC) 94 % of control and 102 % of control | dose: 200.0 mg/kg/injection, schedule: Q04DX002 (ip), vehicle: carboxymethylcellulose (CMC) 97 % of control and 102 % of control | dose: 200.0 mg/kg/injection, schedule: Q04DX003 (ip), vehicle: carboxymethylcellulose (CMC) 96 % of control

CC12CC3CC(C)(C1)CC(SCCN=C(N)CCl)(C3)C2
inactive: dose: 10.0 mg/kg/injection, schedule: Q04DX002 (ip), vehicle: Klucel (hydroxypropylcellulose) (HPC) 105 % of control | dose: 20.0 mg/kg/injection, schedule: Q04DX002 (ip), vehicle: Klucel (hydroxypropylcellulose) (HPC) 102 % of control | dose: 40.0 mg/kg/injection, schedule: Q04DX002 (ip), vehicle: Klucel (hydroxypropylcellulose) (HPC) 110 % of control

CSc1ccc(C2NC(=O)NC2=O)cc1 (stereo not drawn)
inactive: [1] 102 % of control | [2] 100 % of control | [3] 96 % of control | [4] 102 % of control

Cc1nc2sc3c(c2c(=S)[nH]1)CCCC3
inactive: dose: 100.0 mg/kg/injection, schedule: Q01DX001 (ip), vehicle: saline sonified 86 % of control | dose: 200.0 mg/kg/injection, schedule: Q01DX001 (ip), vehicle: saline sonified 89 % of control | dose: 400.0 mg/kg/injection, schedule: Q01DX001 (ip), vehicle: saline sonified 91 % of control

Cc1cc(C)c(CS)c(C)c1
inactive: dose: 25.0 mg/kg/injection, schedule: Q04DX002 (ip), vehicle: Klucel (hydroxypropylcellulose) (HPC) 98 % of control | dose: 50.0 mg/kg/injection, schedule: Q04DX002 (ip), vehicle: Klucel (hydroxypropylcellulose) (HPC) 95 % of control | [5] 98 % of control | [6] 95 % of control | [7] 100 % of control

COC(=O)c1cccc(C)n1
inactive: [2] 94 % of control | [8] 104 % of control | [3] 100 % of control | [9] 97 % of control | [4] 96 % of control | [10] 92 % of control

O=c1[nH]cnc2c1ncn2CCCCCCl
inactive: [11] 102 % of control

C=C1CC2OC(=O)C(=C)C2C(OC(=O)c2ccccc2)/C=C(\C)CCC1OC(=O)c1ccccc1 (stereo not drawn)
inactive: [5] 108 % of control | [6] 91 % of control | [7] 97 % of control

Nc1c(Br)cc(Br)c2ccccc12
inactive: dose: 100.0 mg/kg/injection, schedule: Q01DX009 (ip), vehicle: acetone 93 % of control | dose: 100.0 mg/kg/injection, schedule: Q04DX003 (ip), vehicle: saline with Tween-80 97 % of control | dose: 200.0 mg/kg/injection, schedule: Q01DX009 (ip), vehicle: acetone 91 % of control | dose: 200.0 mg/kg/injection, schedule: Q04DX003 (ip), vehicle: saline with Tween-80 92 % of control | dose: 400.0 mg/kg/injection, schedule: Q01DX009 (ip), vehicle: acetone 93 % of control | dose: 400.0 mg/kg/injection, schedule: Q04DX003 (ip), vehicle: saline with Tween-80 97 % of control

C#CC[N+](CC#C)(CC#C)CC#C
inactive: [12] 96 % of control | [13] 102 % of control | [14] 104 % of control

COc1cc(-c2cc(-c3ccccc3)c3cc(Cl)ccc3n2)cc(OC)c1OC
inactive: dose: 50.0 mg/kg/injection, schedule: Q01DX009 (ip), vehicle: Klucel (hydroxypropylcellulose) (HPC) 90 % of control | [15] 88 % of control | [16] 93 % of control

CC(N)C(C)O (stereo not drawn)
inactive: [8] 96 % of control | [9] 101 % of control | [10] 101 % of control

CNC(=S)n1ncnc1N
inactive: [12] 102 % of control | [13] 114 % of control | [14] 109 % of control | [8] 104 % of control

O=C(C[n+]1ccccc1)c1ccccc1
inactive: dose: 25.0 mg/kg/injection, schedule: Q04DX002 (ip), vehicle: saline 98 % of control | dose: 50.0 mg/kg/injection, schedule: Q04DX002 (ip), vehicle: saline 95 % of control | dose: 100.0 mg/kg/injection, schedule: Q04DX002 (ip), vehicle: saline 98 % of control

CC(O)(CC(c1ccccc1)N1CCc2ccccc2C1)c1ccccc1 (stereo not drawn)
inactive: [8] 105 % of control | [9] 102 % of control | [10] 96 % of control

Nc1nc2ncc(CNc3nc(C(=O)NC(CCC(=O)O)C(=O)O)cs3)nc2c(=O)[nH]1 (stereo not drawn)
inactive: dose: 25.0 mg/kg/injection, schedule: Q01DX009 (ip), vehicle: alkali diluted with saline 97 % of control | dose: 50.0 mg/kg/injection, schedule: Q01DX009 (ip), vehicle: alkali diluted with saline 93 % of control | dose: 75.0 mg/kg/injection, schedule: Q01DX001 (ip), vehicle: other 101 % of control | dose: 75.0 mg/kg/injection, schedule: Q01DX009 (ip), vehicle: alkali diluted with saline 103 % of control | dose: 100.0 mg/kg/injection, schedule: Q01DX009 (ip), vehicle: alkali diluted with saline 92 % of control | dose: 150.0 mg/kg/injection, schedule: Q01DX001 (ip), vehicle: other 103 % of control

O=C(CCCc1ccc(N(CCCl)CCCl)cc1)Nc1ccc(F)cc1
inactive: dose: 4.0 mg/kg/injection, schedule: Q12HX018 (ip), vehicle: other 103 % of control | dose: 6.0 mg/kg/injection, schedule: Q12HX018 (ip), vehicle: other 106 % of control | dose: 8.0 mg/kg/injection, schedule: Q12HX018 (ip), vehicle: other 104 % of control

NNc1ccc(Br)cc1
inactive: [5] 102 % of control | [6] 115 % of control

CC(C#N)C(N)=O (stereo not drawn)
inactive: [17] 97 % of control | [18] 94 % of control | [19] 105 % of control

CCCCC1C/C=C/C=C/C=C/C=C/C(OC2OC(C)C(O)C(N)C2O)CC2OC(O)(CC(O)CC3OC3/C=C/C(=O)O1)CC(O)C2C(=O)O (stereo not drawn)
inactive: [11] 96 % of control | [20] 98 % of control | [21] 107 % of control

C[N+](C)(C)c1ncnc2[n-]cnc12
inactive: dose: 50.0 mg/kg/injection, schedule: Q01DX015 (ip), vehicle: saline 110 % of control

CCN(CC)CCC(=O)c1cccc2c1OC(C)(C)C2
inactive: dose: 12.5 mg/kg/injection, schedule: Q01DX009 (ip), vehicle: saline 100 % of control and 105 % of control | [17] 103 % of control | [12] 93 % of control and 100 % of control | [18] 97 % of control | [13] 93 % of control and 102 % of control | [19] 103 % of control

Cc1ccc(OC(=O)/C=C/C(=O)Oc2ccc(C)cc2)cc1
inactive: [15] 97 % of control | [11] 105 % of control | [16] 95 % of control | [20] 98 % of control | dose: 400.0 mg/kg/injection, schedule: Q01DX009 (ip), vehicle: Klucel (hydroxypropylcellulose) (HPC) 88 % of control | [21] 108 % of control

Cc1ccc(NCC(=O)NN)cc1
inactive: [5] 104 % of control | [6] 107 % of control

Nc1c(Cl)ncnc1Nc1cccc(C(=O)O)c1
inactive: [1] 98 % of control | [2] 108 % of control | [3] 102 % of control | [4] 93 % of control
